Experimental data reported in publication PMC5350173, “Acute effects of N‐terminal progastrin fragments on gastric acid secretion in man” (Physiological Reports, 2017).
No end group written: not given here.

Assay: Plasma concentration of infused peptides by radioimmunoassay

SWKPRSQQPDAPLGTGANR [progastrin fragment 1‐19]
Plasma concentration relative to that of progastrin fragment 1‐35 in experiment D (fragment 1‐19 at t150 in part F versus fragment 1‐35 in part D): half | Cmax (human, plasma, iv, 268 pmol/kg/h, SEM): 0.43 ± 0.0899 nM
